This is an account of results in the pKa sets of Baltruschat and Czodrowski (2020).

On to `CCCc1c(C)[nH][n+](C)c1[O-]`, for which the pKa – broadly, the negative logarithm of the acid dissociation constant – (acidic group) stood at 10.5.
The same measure, in the same setting: the figure for `O=S(=O)(Nc1nccs1)c1ccc(O)cc1` is 6; for `CO/C([O-])=N/c1ncnc2nc[nH]c12` it is 12.1; for `O=C1Cc2c1cc([N+](=O)[O-])c(O)c2Br` it is 2.88.
`CC(C)(C)N1CCCC(=O)C(O)CCC1` (stereo not drawn) displayed a pKa (basic group) of 7.6.
Compound `CS(=O)O` registered a pKa (acidic group) of 2.35.
The compound `CC(C)(C)CC(=O)O` gave a pKa (acidic group) of 5.01.
Compound `CCCCCCCCCCCCCCCC(=O)N[C@@H](Cc1c[nH]cn1)C(=O)[O-]` yielded a pKa (basic group) of 6.2.
As to `CC(=O)CC(=O)Nc1ccccc1`, the pKa (acidic group) stood at 9.94.
Same read-out and setting: the figure for `[O-]c1ccc(O)n[nH+]1` is 5.73.
The compound `CC(C)N1CCCC1` displayed a pKa (basic group) of 11.2.
With `CNc1ncnc2nc[nH]c12`, the pKa reads like this: (acidic group) 10; (basic group) 4.31.
In the case of `CC(=O)c1cccc(N)c1`, the pKa (basic group) stood at 3.61.
Where the note is “acidic group”, `Oc1onc2c1CC[NH+](Cc1ccccc1)CC2` came in with a pKa of 3.3.
Take `COC(=O)c1cccnc1`: the pKa (basic group) came out at 3.23.
The compound `O=C1C(O)=C(Cc2ccccc2)C(=O)c2ccccc21` had a pKa (acidic group) of 4.9.
The compound `O=C(O)C[NH+](CCNS(=O)(=O)c1ccc(CCBr)cc1)CC(=O)O` came in with a pKa (acidic group) of 2.15.
In the case of `COC(=O)[n+]1ccc(N)cc1`, the pKa (acidic group) was 9.15.
`C[C@@H]1CCC[C@H](N(C)C)C1` registered a pKa (basic group) of 10.5.
For `[O-]c1ccnc[nH+]1`, for the setting “basic group”, the pKa came to 1.77.
Same read-out and setting: the figure for `CCN(C)N(CC)CC` is 7.3.
For the compound `Cc1nc2c(O)ccc(O)c2n1C`, the pKa stood at 9.75 (acidic group) and 6.47 (basic group).
`CC(C)([Se-])CN` had a pKa (basic group) of 10.9.
Regarding `O/N=C/c1ccccc1`, the pKa (acidic group) came to 10.8.
On the same count and under the same terms, the figure for `Nc1c2ccccc2[nH+]c2cccc(O)c12` is 5.61.
With `CN(C)c1cccc(C#N)c1`, the pKa (basic group) worked out at 2.97.
Consider `OCc1nc2ncncc2[nH]1`, for which the pKa is 8.79 (acidic group) and 2.62 (basic group).
In the case of `Oc1ccc(F)cc1C[NH+]1CCCCC1`, the pKa (acidic group) was found to be 8.81.
The compound `CCCNCc1ccccc1` displayed a pKa (basic group) of 9.62.
For `C[NH+](C)CC(C)(C)CN`, the pKa (basic group) worked out at 7.4.
`CC(=O)CC(=O)O`: the pKa (acidic group) amounted to 3.09.
The compound `Cn1c(=S)ccc2ccccc21` displayed a pKa (basic group) of -1.6.
With `CCCCOC(=N)c1ccccc1`, for the setting “basic group”, the pKa came to 6.09.
In turn, `O=[PH](O)C([NH2+]Cc1ccc[nH+]c1)c1ccccc1O` (stereo not drawn) showed a pKa (acidic group) of 2.35.
Take `N#Cc1cccc(N)c1`: the pKa (basic group) is 2.83.
The compound `Nc1ncnc2c1ncn2CCOCP(=O)([O-])O` came in with a pKa (acidic group) of 7 and a pKa (basic group) of 4.18.
Compound `N#Cc1ccccn1` came in with a pKa (basic group) of -0.26.
The compound `c1ccc2c(c1)NCCN2` came in with a pKa (basic group) of 4.84.
Compound `Oc1ccccc1I` returned a pKa (acidic group) of 8.4.
With `CC(C=C(c1cccs1)c1cccs1)N(C)C` (stereo not drawn), where the note is “basic group”, the pKa is 8.95.
Regarding `Cc1cccc(OCC(=O)O)c1`, the pKa (acidic group) came to 3.18.
For `CN1C=C(C#N)CCC1`, the pKa (basic group) turned out to be 2.7.
With `O=N/C(=N/O)c1ccccc1`, for the setting “acidic group”, the pKa came out at 4.9.
Take `CC(C)(S)[C@@H](C(=O)[O-])n1ccnc1Cc1ccccc1`: the pKa by setting is: (acidic group) 10.3; (basic group) 6.98.
`O=C(O)c1coc2ccccc12` returned a pKa (acidic group) of 4.18.
Compound `Cc1ncc(CO)c(C)c1OCc1ccccc1` returned a pKa (basic group) of 5.52.
For `CN(C)c1cccc2c(S(=O)(=O)NCC(=O)[O-])cccc12`, the pKa (acidic group) was 11.7.
`OC(O)=C1c2ccccc2-c2ccccc21` returned a pKa (acidic group) of 2.01.
Turning to `CCCCCCCCCCCCN(CC(O)CC)CC(O)CC` (stereo not drawn), the pKa (basic group) is 5.6.
Still for that read-out and setting: the value for `C#CCN1CCN(C(=O)OCC)CC1` was 5.44.
The compound `O=C(O)CSc1[nH]c2cc3ccccc3cc2[nH+]1` showed a pKa (acidic group) of 1.9.
In the case of `Cc1ncnc2ccccc12`, the pKa (basic group) turned out to be 2.52.
With `[S-]c1ncc2nc[nH]c2n1`, the pKa reads like this: (acidic group) 10.4; (basic group) 7.15.
On to `Cc1cc([O-])[nH+]cn1`, for which the pKa (basic group) was 2.15.
As for `Cc1cccc(/N=N/c2ccc(N)cc2)c1`, under “basic group”, the pKa was determined as 2.88.
On to `Cc1ccc(C(=S)Nc2ccccc2)cc1`, for which, under “acidic group”, the pKa was 11.5.
For the compound `COc1ccc2c3c1O[C@H]1CCC[C@H]4[C@@H]([C@@H]2O)N(C)CC[C@]314`, the pKa (basic group) came out at 9.41.
Consider `Cn1ncc2c(NCc3ccco3)ncnc21`, for which, under “basic group”, the pKa came out at 3.8.
With `CNC(C)(C)C(=O)[O-]`, for the setting “basic group”, the pKa stood at 10.8.
Turning to `NS(=O)(=O)c1ccc(F)cc1`, the pKa (acidic group) amounted to 9.34.
Under “basic group”, `COCCNc1ccc(OC)cc1` displayed a pKa of 5.02.
Regarding `CCCCC([NH3+])C(=O)O` (stereo not drawn), the pKa (acidic group) came to 2.29.
For the compound `C[C@H](CCC(=O)O)[C@H]1CC[C@H]2[C@@H]3[C@@H](O)C[C@@H]4C[C@H](O)CC[C@]4(C)[C@H]3CC[C@]12C`, the pKa (acidic group) was determined as 5.08.
Same read-out and setting: the value for `N#CC(C#N)=C(c1ccccc1)C(C#N)C#N` was 2.3.
Same read-out and setting: the value for `NC(=O)CS(N)(=O)=O` was 9.7.
`CC(=O)OC(C)CN(C)C` (stereo not drawn) yielded a pKa (basic group) of 8.31.
In the case of `C[NH+](C)Cc1cccc(O)c1`, under “acidic group”, the pKa amounted to 8.88.
The same measure, in the same setting: the figure for `O=C(O)CCc1ccc(Cl)cc1` is 4.65.
`Nc1cc2ccccc2cc1[N+](=O)[O-]`: the pKa (basic group) was 1.48.
`c1cncc(-c2ccncc2)c1` had a pKa (basic group) of 4.85.
`CC(CO)CN(C)C` (stereo not drawn) showed a pKa (basic group) of 9.75.
Consider `CC(C)[NH2+]CCN`, for which the pKa (basic group) turned out to be 7.7.
On to `Cn1ccc2ccc3cccnc3c21`, for which, where the note is “basic group”, the pKa is 4.36.
On the same count and under the same terms, the value for `CN1CC=CCN1C` was 5.7.
`CCCNC(O)=S` displayed a pKa (acidic group) of 0.52.
Turning to `CN(C)c1ccc([N+](=O)[O-])c2c(NCCC[NH+](C)C)c3ccccc3nc12`, the pKa (basic group) was 6.47.
As to `Cc1ccccc1NC(=O)CN1CCCCC1`, the pKa (basic group) was determined as 7.7.
Compound `[NH3+]C(Cc1n[nH]c2ccccc12)C(=O)O` (stereo not drawn) had a pKa (acidic group) of 2.2.
The compound `N#CCc1cccnc1` registered a pKa (basic group) of 3.78.
With `Cc1ccc(C(=O)S)cc1`, the pKa by setting is: (acidic group) 2.59; (basic group) -5.19.
As to `O=C(O)c1ccc(O)cc1`, the pKa (acidic group) is 4.57.
For `Nc1cc(Br)cc(Br)c1`, where the note is “basic group”, the pKa was 2.49.
Where the note is “acidic group”, `Oc1c(C(Nc2nc3ccccc3s2)c2ccccn2)ccc2cccnc12` (stereo not drawn) gave a pKa of 10.9.
`Nc1ccccc1N` returned a pKa (basic group) of 4.43.
Turning to `CC(C)NCC(=O)[O-]`, the pKa (basic group) worked out at 10.1.
As to `Cc1cc(O)cc([N+](C)(C)C)c1`, where the note is “acidic group”, the pKa was 8.2.
On the same count and under the same terms, the value for `O=C(O)[C@@H]1O[C@H](Oc2ccc3[nH+]c(O)ccc3c2)[C@@H](O)[C@H](O)[C@H]1O` was 3.07.
Take `CN(C)CCCCC(=O)Oc1ccc([N+](=O)[O-])cc1`: the pKa (basic group) was determined as 9.9.
Compound `Cc1cc([O-])[nH+]c([S-])n1` had a pKa (basic group) of 7.73.
Same read-out and setting: the figure for `CCN(CCC#N)CCC#N` is 4.55.
On the same count and under the same terms, the value for `CCOc1ccc2nc3cc([N+](=O)[O-])ccc3c(N)c2c1` was 7.5.
`Cc1cccc(C(C)[N+](=O)[O-])c1` (stereo not drawn): for the setting “acidic group”, the pKa was 7.49.
Under “basic group”, `c1ccc2c(c1)CCN2` returned a pKa of 5.49.
Same read-out and setting: the figure for `C[C@H](CCCN)[C@H]1CC[C@H]2[C@@H]3CC[C@@H]4C[C@H](O)CC[C@]4(C)[C@H]3CC[C@]12C` is 9.7; for `C[C@@H]([C@H](O)c1ccccc1)N(C)C` it is 9.22; for `Cc1cccc(N(C)C)c1` it is 5.32.
In turn, `Cc1ccc(C(N)=S)cc1` came in with a pKa (acidic group) of 12.8.
In the case of `CCNNC`, the pKa (basic group) was found to be 7.5.
As to `CC(=O)NO`, for the setting “acidic group”, the pKa was 9.07.
Turning to `CCOC(=O)c1c(C)nc(C)c(C(=O)OCC)c1-c1ccc(NS(=O)(=O)c2ccc(N)cc2)cc1`, for the setting “acidic group”, the pKa turned out to be 9.15.
Take `CNNC1CCN(C(C)C)CC1`: the pKa (basic group) was 9.1.
For the compound `[NH3+]CCCCCC#CC#CCCC(=O)O`, the pKa (acidic group) turned out to be 4.17.
Under “basic group”, `CN(C)c1ccc(/C=N/c2ncc3nc[nH]c3n2)cc1` yielded a pKa of 5.26.
The compound `N[C@@H](CCCCN1C(=O)C[C@H](N)C1=O)C(=O)[O-]` had a pKa (basic group) of 9.5.
In turn, `CC1(C)S[C@H]2[C@@H](NC(=O)Cc3ccc(O)cc3)C(=O)N2[C@@H]1C(=O)O` showed a pKa (acidic group) of 2.62.
Still for that read-out and setting: the value for `COP(=O)(O)NS(=O)(=O)c1ccccc1` was 1.05.
For `Nc1ccc(O)c2ncccc12`, the pKa is, setting by setting: (acidic group) 11.2; (basic group) 5.67.
In turn, `O=C(Nc1ccccn1)c1ccccc1` displayed a pKa (basic group) of 3.33.
Compound `Cc1ccc(C(=O)O)cc1C` came in with a pKa (acidic group) of 4.41.
Compound `CCc1cc(/N=N/c2ccc(N(C)C)cc2)ccc1C` had a pKa (basic group) of 2.59.
Consider `O=C(O)c1ccc(F)cc1`, for which the pKa (acidic group) is 4.16.
For the compound `O=C(O)CCP`, the pKa (acidic group) was determined as 4.23.
In the case of `CC(=O)NS(=O)(=O)c1ccccc1C(=O)O`, under “acidic group”, the pKa worked out at 3.1.
`[O-]c1ncnc2ccccc12` showed a pKa (basic group) of 9.81.
Compound `Nc1ncccc1C(=O)[O-]` showed a pKa (basic group) of 6.59.
On the same count and under the same terms, the figure for `C[C@@H](C=C(c1ccccc1)c1ccccc1)N(C)C` is 9.26.
As to `S=c1[nH]c2cc3c(cc2[nH]1)CCCC3`, the pKa (acidic group) came out at 10.4.
`NC(N)=O` showed a pKa (basic group) of 0.4.
Same read-out and setting: the figure for `NC[C@H](O)C(=O)[O-]` is 9.27.
As for `CCN(CC)CC(=O)N(C)c1ccccc1C`, the pKa (basic group) was found to be 8.74.
On the same count and under the same terms, the value for `[S-]c1cnc2ccccc2[nH+]1` was -1.11.
`[O-]c1ccccc1O` yielded a pKa (acidic group) of 11.6.
On to `O=c1ccc(Br)ccc1O`, for which the pKa (acidic group) is 6.32.
In turn, `COc1ccc(C[NH3+])cc1N` had a pKa (basic group) of 4.16.
In the case of `C[NH+](C)CCCCNC(=O)/C=N/O`, under “acidic group”, the pKa came out at 8.81.
In the case of `O=C(O)CS`, the pKa (acidic group) is 3.38.
Still for that read-out and setting: the figure for `COC1=CC2CCC1(C(=O)O)CC2` is 4.45.
Where the note is “acidic group”, `O=C(O)CCc1c[nH]c2ccccc12` displayed a pKa of 4.87.
Take `NS(=O)(=O)c1ccc(P(=O)([O-])[O-])cc1`: the pKa (acidic group) was determined as 10.
In the case of `CC(C)(C)c1ccc2c(c1)C(=O)NC2=O`, under “acidic group”, the pKa stood at 10.2.
On the same count and under the same terms, the figure for `CCc1c(O)nn(-c2ccccc2C(=O)[O-])c1C` is 12.2.
For `[NH3+][C@@H](Cc1c[nH]cn1)C(=O)N[C@@H](Cc1c[nH]cn1)C(=O)[O-]`, for the setting “basic group”, the pKa was determined as 6.8.
`CCc1ccccc1C(=O)O` displayed a pKa (acidic group) of 3.79.
For the setting “acidic group”, `O/N=C(/Cl)c1ccccc1` returned a pKa of 9.8.
In the case of `CC(=O)C(C)C(C)=O`, the pKa (acidic group) amounted to 10.8.
